The source of these data is US20170065663A1, “SUBSTANCE AND METHOD FOR TREATING INFLUENZA” (priority 2014, published 2017).

Structures are written as SMILES. Where two headings read alike, the source gives them in different places.

One series has as its target T1, ECE-1 (Homo sapiens, UniProt P42892).
T1 sequence (P42892 1-770): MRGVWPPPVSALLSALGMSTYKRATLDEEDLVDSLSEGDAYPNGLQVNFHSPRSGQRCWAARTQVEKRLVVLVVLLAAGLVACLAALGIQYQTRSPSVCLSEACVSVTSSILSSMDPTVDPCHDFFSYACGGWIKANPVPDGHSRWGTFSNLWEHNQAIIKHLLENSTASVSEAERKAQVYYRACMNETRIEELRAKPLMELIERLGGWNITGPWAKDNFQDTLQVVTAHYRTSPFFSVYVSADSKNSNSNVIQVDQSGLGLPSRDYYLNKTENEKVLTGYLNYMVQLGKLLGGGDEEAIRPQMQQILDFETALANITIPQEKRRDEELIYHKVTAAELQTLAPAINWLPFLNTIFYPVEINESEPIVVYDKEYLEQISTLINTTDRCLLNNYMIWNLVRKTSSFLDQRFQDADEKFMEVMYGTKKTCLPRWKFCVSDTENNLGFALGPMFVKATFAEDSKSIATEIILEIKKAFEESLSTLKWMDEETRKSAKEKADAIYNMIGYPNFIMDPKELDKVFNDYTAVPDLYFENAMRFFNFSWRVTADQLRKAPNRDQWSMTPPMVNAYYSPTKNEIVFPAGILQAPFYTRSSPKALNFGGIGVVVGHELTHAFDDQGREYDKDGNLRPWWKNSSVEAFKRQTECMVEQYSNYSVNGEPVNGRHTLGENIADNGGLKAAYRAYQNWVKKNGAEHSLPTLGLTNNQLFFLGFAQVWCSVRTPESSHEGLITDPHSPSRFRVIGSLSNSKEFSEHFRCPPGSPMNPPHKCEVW
The note with it: cited from earlier work; for peptide present that is degraded: within 100 minutes of incubation.

A short description of series [1]: Example I: degradation in IMDM media with 2.5% fetal bovine serum.
The nature of series [2]: Example II: degradation of further Substance P analogs in IMDM media with 2.5% fetal bovine serum. The note with it: 72 hours, present tense.
Series [3] concerns influenza virus subtypes H1N1, H3N2, H5N1 and H7N9. Further details: species or system mice, cotton rats and ferrets. To be noted: in vivo.
For series [4] the test system is unchanged. Further details: species or system mice, cotton rats and ferrets. The note with it: in vivo. The source holds these as a separate data set.
Series [5] relates to Influenza/A/Wuhan/359/95. On the set-up: species or system cotton rats (Sigmodon Hispidus). The note with it: rat, in vivo.
Series [6] deals with Influenza/A/Wuhan/359/95. Further details: species or system cotton rats (Sigmodon Hispidus). The note with it: rat, in vivo. The source holds these as a separate data set.

The share remaining is what is left of the initial amount, in per cent. Lower therefore signals more turnover. Turning to `CC(C)C[C@H](NC(=O)CN(C)C(=O)[C@H](Cc1ccccc1)NC(=O)[C@H](Cc1ccccc1)NC(=O)[C@H](CCC(N)=O)NC(=O)[C@H](CCC(N)=O)NC(=O)[C@@H]1CCCN1C(=O)[C@H](CCCCN)NC(=O)[C@@H]1CCCN1C(=O)[C@@H](N)CCCNC(=N)N)C(=O)N[C@@H](CCS(C)(=O)=O)C(N)=O`, at ECE-1 (195 nM ECE-1, 1200 minutes post-incubation), the “additional degradation after long incubation” value is “no additional degradation occurs”. Moreover, on ECE-1 (195 nM ECE-1), the “time for 50% of the peptide present to become degraded” value was about 300 min and the “peptide present that is degraded” value is recorded as “about 20%”. The compound further gave an amount remaining at 72 h in series [1] of 59%.

As for `CSCC[C@H](NC(=O)[C@H](CC(C)C)NC(=O)CNC(=O)[C@H](Cc1ccccc1)NC(=O)[C@H](Cc1ccccc1)NC(=O)[C@H](CCC(N)=O)NC(=O)[C@H](CCC(N)=O)NC(=O)[C@@H]1CCCN1C(=O)[C@H](CCCCN)NC(=O)[C@@H]1CCCN1C(=O)[C@@H](N)CCCN=C(N)N)C(N)=O` [Substance P], the “peptide present that is degraded” value on ECE-1 (195 nM ECE-1) is recorded as about 100%. In series [1], this compound yielded a share remaining at 72 h of 24%. In series [2], the initial concentration recovered is reported as 24%.

Consider `CCOC(=O)C1=C[C@@H](OC(CC)CC)[C@H](NC(C)=O)[C@@H](N)C1` [Tamiflu®, oseltamivir], for which the “flu-related symptoms compared with placebo” value in series [3] was “fewer flu-related symptoms”. Further, in series [4], the “flu-related symptoms compared with placebo” value was “fewer flu-related symptoms” and the “symptom reduction compared with subjects treated with an enumerated Substance P analog” value is given as “do not exhibit the symptom reduction produced in the subjects treated with one of the enumerated Substance P analogs”. Also, the “body weight change following infection” value in the series with Influenza/A/Wuhan/359/95 [5] was “greater loss in body weight than mock-treated/infected animals”. Besides, in the series with Influenza/A/Wuhan/359/95 [6], the body weight loss entry is given as “recover from weight-loss quicker than vehicle-treated controls”; the “pulmonary inflammation (alveolitis and interstitial inflammation)” value is “did not appear to affect pulmonary inflammation”.
